Publication PMC8949258, “Synthesis, Characterization and Anticancer Efficacy Evaluation of Benzoxanthone Compounds toward Gastric Cancer SGC-7901” (Molecules, 2022)
One block for each molecule: values may come before it.

Legend:
HeLa = assay: MTT in vitro cytotoxicity assay, HeLa; type: cell-based; settings: Homo sapiens, 48 h
Experimental: (§1) Roswell Park Memorial Institute Medium (RPMI-1640) was used to culture BEL-7402 and SGC-7901 cell lines; and A549, HeLa and LO2 cells were cultured in Dulbecco’s Modified Eagle’s Medium (DMEM) containing 10% fetal bovine serum (FBS). Cell passage experiments were performed with trypsin every 2 days to maintain exponential growth. All cells were cultured until they reached logarithmic growth phase, unless specifically noted.
(§2) The cytotoxicity test was carried out according to a method described in the literature. The cells were seeded into 96-well micro-assay culture plates and grown overnight in a 5% CO2 incubator at 37 °C. Then, the cells were treated with gradient concentrations of the compounds when the cells grew to 60–70%. At 48 h posttreatment, the medium was removed and MTT solution was added. After 4 h, the absorbance at 490 nm was measured with a microplate reader. The IC50 values were calculated by SPSS (Statistical Product and Service Solutions) software.

SGC-7901 = assay: MTT in vitro cytotoxicity assay, SGC-7901; type: cell-based; settings: Homo sapiens, 48 h
Experimental: as §1, §2

A549 = assay: MTT in vitro cytotoxicity assay, A549; type: cell-based; settings: Homo sapiens, 48 h
Experimental: as §1, §2

BEL-7402 = assay: MTT in vitro cytotoxicity assay, BEL-7402; type: cell-based; settings: Homo sapiens, 48 h
Experimental: as §1, §2

LO2 = assay: MTT in vitro cytotoxicity assay, normal cell line LO2; type: cell-based; settings: Homo sapiens, L02, 48 h
Experimental: as §1, §2

SGC-7901 cells [1] = assay: Intracellular MDA assay; type: cell-based, human; settings: SGC-7901, IC50 concentrations, 24 h
Experimental: (§3) After incubation with IC50 concentrations of 3b and 3c for 24 h, SGC-7901cells were lysed. The lysate was centrifuged for 15 min to collect the supernatant. The protein concentration was determined using a BCA Protein Assay Kit (Beyotime, Shanghai, China). A lipid peroxidation MDA assay kit (Beyotime, Shanghai, China) was used to detect MDA content, and a GSH and GSSG Assay Kit was used to detect intracellular GSH. SGC-7901 cells were incubated with IC50 concentrations of 3b and 3c for 24 h. Afterwards, the cells were lysed by the freeze-thaw method, and the lysate was centrifuged for 5 min to collect the supernatant. The absorbance was measured at 412 nm with a microplate reader.

P38 MAPK = assay: Western blot of P38 MAPK expression; type: cell-based, human; settings: SGC-7901, IC50 concentrations, 24 h
Experimental: SGC-7901 cells were seeded in six-well plates for 24 h and incubated with IC50 concentrations of the compounds in the presence of 10% fetal bovine serum (FBS). The cells were then harvested in lysis buffer. After sonication, the samples were centrifuged for 20 min at 13,000× g. The protein concentration of the supernatant was determined by BCA (bicinchoninic acid) assay. Sodium dodecyl sulfate–polyacrylamide gel electrophoresis was carried out with loading equal amounts of proteins per lane. The gels were then transferred to poly (vinylidene difluoride) membranes (Millipore, Billerica, MA, USA) and blocked with 5% nonfat milk in TBST (20 mM Tris-HCl, 150 mM NaCl, 0.05% Tween 20, pH 8.0, Tween: polyoxyethylene monolaurate sorbaitan) buffer for 3 h. The polyvinylidene difluoride membranes were washed four times with TBST (4 × 10 min) and incubated with primary antibody solution at 4 °C overnight. They were then washed four times with TBST for a total of 30 min. The secondary antibodies were then conjugated with horseradish peroxidase (1:5000 dilution) for 70 min at room temperature and washed four times with TBST. The blots were visualized with the Amersham ECL ([…]) and western blotting detection reagents according to the manufacturer’s instructions.

CRT, HSP70 and HMGB1 = assay: Immunostaining of CRT, HSP70 and HMGB1 (immunogenic cell death); type: cell-based, human; settings: SGC-7901, IC50 concentrations, 24 h
Experimental: The SGC-7901 cells were cultured in 12-well plates and treated with IC50 concentrations of 3b and 3c for 24 h. The cells were fixed with 75% alcohol, and then washed and incubated with immunostaining blocker for 1 h. The primary antibody CRT Antibody, HSP70 Antibody and HMGB1 antibody were incubated for 12 h and then the cells were washed three times with PBS. Next, the secondary antibody FITC-labeled Goat Anti-Rabbit IgG was incubated in darkness for 1 h. The cells were washed three times with PBS. Finally, the nuclei were stained with Hoechst and photographed under Micro XLS System (MD company, San Jose, CA, USA).

[2] = Stability in PBS by UV-Vis spectra; type: physicochemical
Description: The stability of 3b and 3c in PBS was studied by UV-Vis spectra.

SGC-7901 cells [3] = assay: Cellular uptake (DAPI, fluorescence microscope); type: cell-based, human; settings: SGC-7901, IC50 concentrations, 24 h
Experimental: Cellular uptake studies were performed according to a method described in the literature. SGC-7901 cells were placed in 24-well microassay culture plates and grown overnight at 37 in a 5% CO2 incubator. The compounds tested were then added to the wells. […] Upon completion of incubation, the wells were washed three times with phosphate buffered saline (PBS). After moving the culture medium, the cells were stained with 2-(4-amidinophenyl)-6-indolecarbamidine dihydrochloride (DAPI) and observed under fluorescence microscope.

SGC-7901 cells [4] = assay: Mitochondrial membrane potential assay (JC-1); type: cell-based, human; settings: SGC-7901, IC50 concentrations, 24 h; control 5.85
Experimental: SGC-7901 cells were treated with IC50 concentrations of the compounds in 12-well plates for 24 h and were washed three times with cold PBS. Then, the cells were stained with 1 μg/mL JC-1 for 30 min at 37 °C in the dark. After that, the cells were washed twice with ice-cold PBS to remove residual stain and imaged under the ImageXpress Micro XLS system (MD company, San Jose, CA, USA).

SGC-7901 cells [5] = assay: Intracellular GSH assay; type: cell-based, human; settings: SGC-7901, IC50 concentrations, 24 h
Experimental: as §3

SGC-7901 cells [6] = assay: ATP measurement; type: cell-based, human; settings: SGC-7901, IC50 concentrations, 24 h
Experimental: The SGC-7901 cells were cultured in six-well plates and treated with IC50 concentrations of 3b and 3c for 24 h. The cells were lysed for 10 min and centrifuged to obtain the supernatant. The prepared ATP detection working solution was added into the supernatant, 5 min late, the RLU value was measured.

calf thymus DNA (CT-DNA) [7] = assay: EB-competitive binding, luminescence titration; settings: EB-CT-DNA (DNA:EB = 1.25:1), compounds 6.62–50 μM
Experimental: We used ethidium bromide (EB)-competing binding experiments to investigate the binding mode between the compounds and CT-DNA. It is well known that EB combines DNA molecules through a classic intercalative mode. Maintaining the DNA-EB solution concentration (DNA:EB = 1.25:1) and varying the concentrations of compounds (6.62–50 μM), the spectra were recorded after 5 min. The Stern-Volmer constants (Ksv) were calculated using the following Equation (3):F0/F = 1 + Ksv [Q](3) where F0 and F were the fluorescence intensities of the EB-CT DNA solution at 550–700 nm in the absence and presence of the compounds, respectively. [Q] was the concentration of compounds. In plots of F0/F versus [Q], Ksv was given by the ratio of the slope to the intercept.

SGC-7901 cells [8] = assay: Cell cycle arrest by flow cytometry (PI); type: cell-based, human; settings: SGC-7901, IC50 concentrations, 24 h
Experimental: The cell cycle arrest was carried out using a method described in the literature. Briefly, SGC-7901 cells were treated with IC50 concentrations of compounds for 24 h. Then, the cells were harvested and fixed overnight in 70% ethanol at 4 °C. Next, the permeabilized cells were stained with PI/RNase buffer and the DNA content was determined on a flow cytometer. The results were analyzed by ModFit LT 4.0 (Verity Software House, Topsham, ME, USA).

SGC-7901 cells [9] = assay: Intracellular ROS levels (DCFH-DA); type: cell-based, human; settings: SGC-7901, IC50 concentrations, 24 h, versus control
Experimental: SGC-7901 cells were seeded in 12-well plate at a density of 1.5 × 10^5 cells per well for 24 h. Then, the medium was replaced with medium containing compounds for 24 h. After treatment, the medium was removed and washed three times with PBS, and the cells were stained with 20 μM DCFH-DA for 30 min in the dark. Finally, the cells were imaged under ImageXpress Mico XLS system (MD company, San Jose, CA, USA).

[10] = pKa by potentiometric titration; type: physicochemical; settings: aqueous dimethyl sulfoxide (30% DMSO), 30% dimethyl sulfoxide, 0.15 M KCl
Experimental: The pKa values of the compounds were determined by potentiometric titration using a pH meter (Basic pH Meter PB-10, Sartorius) calibrated with standard buffers of pH 4.01, 6.86 and 9.18 [26]. The compounds were dissolved in aqueous dimethyl sulfoxide (30% dimethyl sulfoxide) at constant ionic strength (0.15 M KCl). The solution was pre-acidified to approximately pH = 2 with 0.24 M HCl, and titrated until pH = 12 with 0.06 M KOH.

calf thymus DNA (CT-DNA) [11] = assay: Viscosity experiments with CT-DNA; type: binding; settings: 25 (±0.1) °C, [DNA] = 200 μM, compounds 0 to 90 μM
Experimental: An ubberhold viscometer was used to measure the viscosity of the CT-DNA solution in the absence and presence of compounds, and the temperature was maintained at 25 ± 0.1 °C. The concentration of CT-DNA was 200 μM, and the concentrations of the compounds varied from 0 to 90 μM. The flow times were recorded with a digital stopwatch; each sample was measured three times to get the average time.

[12] = Partition coefficient by shake flask method; type: physicochemical; settings: octanol / phosphate buffer (0.129 M NaCl, pH = 7.4)
Experimental: Partition coefficients of compounds in octanol and phosphate buffer (0.129 M NaCl, pH = 7.4) were measured as described by Owellen and coworkers. The concentrations of the compounds in the octanol and phosphate buffer phases were determined three times using a UV/Vis spectrophotometer. The partition coefficients were calculated from the ratio Coct/CPBS, where Coct and CPBS were the concentrations of the compound in the octanol and phosphate buffer, respectively.

SGC-7901 cells [13] = assay: Intracellular Ca2+ levels (Fluo-3AM); type: cell-based, human; settings: SGC-7901, IC50 concentrations, 24 h, versus control
Experimental: Fluo-3AM, a Ca^2+-sensitive fluorescent probe, was used to detect the level of intracellular Ca^2+. SGC-7901 cells were incubated with IC50 concentrations of the compounds for 24 h at 37 °C. Then, the cells were washed three times with PBS, incubated with Fluo-3AM, and observed under an ImageXpress Micro XLS system (MD company, San Jose, CA, USA). The fluorescence intensity was analyzed under a high content analysis system.

Structure (SMILES): O=C(O)CCc1cccc2oc3ccc4ccccc4c3c(=O)c12 [Compound 3a, 3-(12-oxo-12H-benzo[a]xanthen-11-yl)propanoic acid]
IC50 (HeLa): > 100 µM
IC50 (SGC-7901): > 100 µM
IC50 (A549): > 100 µM
IC50 (BEL-7402): > 100 µM
IC50 (LO2): > 100 µM

stability in PBS ([2]; UV-Vis spectra at 0 and 48 h): stable in PBS
solubility in PBS ([2]; precipitate observed at 48 h): low solubility in PBS
pKa [10]: 7.48
logP [12]: 0.822
Structure (SMILES): COC(=O)c1ccc2c(ccc3oc4cccc(CCC(=O)O)c4c(=O)c32)c1 [Compound 3b, 3-(3-methoxycarbonyl-12-oxo-12H-benzo[a]xanthen-11-yl)propanoic acid]
MDA (SGC-7901 cells [1]): 5.58 nmol/mg
P38 MAPK expression (P38 MAPK): significantly upregulated
expression of CRT, HSP70 and HMGB1 (CRT, HSP70 and HMGB1): increased
cellular uptake (SGC-7901 cells [3]): enter the cytoplasm and accumulate in the nuclei
ratio of red/green fluorescence (R), JC-1 (SGC-7901 cells [4]): 3.01
GSH concentration (SGC-7901 cells [5]): 69.96 µM
ATP concentration (SGC-7901 cells [6]): 3.30 µM
Stern-Volmer constant (Ksv) (calf thymus DNA (CT-DNA) [7]): 2.20 (±0.12) × 10^3 M^−1
IC50 (HeLa): 68 ± 9.28 µM
Percentage in the cell G0/G1 (SGC-7901 cells [8]): 74.6%
Percentage in the cell G2/M (SGC-7901 cells [8]): 17.4%
increase in the cell at G0/G1 phase (SGC-7901 cells [8]; versus control): 17.7%
IC50 (SGC-7901): 45.6 ± 6.5 µM
increase of DCF fluorescence intensity (SGC-7901 cells [9]): about 60.5%
relative viscosity of CT-DNA with increasing compound concentration (calf thymus DNA (CT-DNA) [11]): increased
IC50 (A549): 51.5 ± 13.7 µM
IC50 (BEL-7402): > 100 µM
increase of Flu-3-AM fluorescence intensity (intracellular Ca2+) (SGC-7901 cells [13]): 1.67 times
IC50 (LO2): 38.1 ± 0.41 µM
